Values of other authors in patent US20050096391A1 (priority 2003, published 2005).

Key:
[1] = oral
[2] = test system: low-density lipoprotein (LDL)-cholesterol; conditions: compared with atorvastatin, simvastatin, pravastatin
[3] = pH of 7.0

solubility in ethanol (ethanol) | solubility in methanol (methanol) | solubility in water (water) | bioavailability [1] | partition coefficient (octanol/water) [3] | Compound | reductions in low-density lipoprotein (LDL)-cholesterol [2]
slightly soluble | sparingly soluble | sparingly soluble |  |  | CC(C)c1nc(N(C)S(C)(=O)=O)nc(-c2ccc(F)cc2)c1/C=C/[C@@H](O)C[C@@H](O)CC(=O)[O-].CC(C)c1nc(N(C)S(C)(=O)=O)nc(-c2ccc(F)cc2)c1/C=C/[C@@H](O)C[C@@H](O)CC(=O)[O-].[Ca+2] [Rosuvastatin calcium] | 
 |  |  | approximately 20% | 0.13 | CC(C)c1nc(N(C)S(C)(=O)=O)nc(-c2ccc(F)cc2)c1/C=C/[C@@H](O)C[C@@H](O)CC(=O)O [Rosuvastatin, (E)-7-[4-(4-fluorophenyl)-6 isopropyl-2-[methyl (methyl-sulfonyl)amino]pyrimidin-5-yl](3R,5S)-3,5-dihydroxyhept-6-enoic acid] | greater reductions in low-density lipoprotein (LDL)-cholesterol than atorvastatin, simvastatin, and pravastatin
